Here are results for 25 compounds from US20250326749A1, “COMPOUNDS, COMPOSITIONS, AND METHODS OF USING THEREOF” (Sionna Therapeutics Inc., priority 2022, published 2025).

The target in the assay is T1, ΔF508-CFTR (Homo sapiens, UniProt P13569, DEL508-508).
T1 construct: expressed in transfected cells; host or cells: CFSMEo- (human CF submucosal gland epithelial cells, ΔF508/Q2X), transiently transfected by nucleofection
T1 sequence (P13569 with tags, fused parts or gaps DEL508-508): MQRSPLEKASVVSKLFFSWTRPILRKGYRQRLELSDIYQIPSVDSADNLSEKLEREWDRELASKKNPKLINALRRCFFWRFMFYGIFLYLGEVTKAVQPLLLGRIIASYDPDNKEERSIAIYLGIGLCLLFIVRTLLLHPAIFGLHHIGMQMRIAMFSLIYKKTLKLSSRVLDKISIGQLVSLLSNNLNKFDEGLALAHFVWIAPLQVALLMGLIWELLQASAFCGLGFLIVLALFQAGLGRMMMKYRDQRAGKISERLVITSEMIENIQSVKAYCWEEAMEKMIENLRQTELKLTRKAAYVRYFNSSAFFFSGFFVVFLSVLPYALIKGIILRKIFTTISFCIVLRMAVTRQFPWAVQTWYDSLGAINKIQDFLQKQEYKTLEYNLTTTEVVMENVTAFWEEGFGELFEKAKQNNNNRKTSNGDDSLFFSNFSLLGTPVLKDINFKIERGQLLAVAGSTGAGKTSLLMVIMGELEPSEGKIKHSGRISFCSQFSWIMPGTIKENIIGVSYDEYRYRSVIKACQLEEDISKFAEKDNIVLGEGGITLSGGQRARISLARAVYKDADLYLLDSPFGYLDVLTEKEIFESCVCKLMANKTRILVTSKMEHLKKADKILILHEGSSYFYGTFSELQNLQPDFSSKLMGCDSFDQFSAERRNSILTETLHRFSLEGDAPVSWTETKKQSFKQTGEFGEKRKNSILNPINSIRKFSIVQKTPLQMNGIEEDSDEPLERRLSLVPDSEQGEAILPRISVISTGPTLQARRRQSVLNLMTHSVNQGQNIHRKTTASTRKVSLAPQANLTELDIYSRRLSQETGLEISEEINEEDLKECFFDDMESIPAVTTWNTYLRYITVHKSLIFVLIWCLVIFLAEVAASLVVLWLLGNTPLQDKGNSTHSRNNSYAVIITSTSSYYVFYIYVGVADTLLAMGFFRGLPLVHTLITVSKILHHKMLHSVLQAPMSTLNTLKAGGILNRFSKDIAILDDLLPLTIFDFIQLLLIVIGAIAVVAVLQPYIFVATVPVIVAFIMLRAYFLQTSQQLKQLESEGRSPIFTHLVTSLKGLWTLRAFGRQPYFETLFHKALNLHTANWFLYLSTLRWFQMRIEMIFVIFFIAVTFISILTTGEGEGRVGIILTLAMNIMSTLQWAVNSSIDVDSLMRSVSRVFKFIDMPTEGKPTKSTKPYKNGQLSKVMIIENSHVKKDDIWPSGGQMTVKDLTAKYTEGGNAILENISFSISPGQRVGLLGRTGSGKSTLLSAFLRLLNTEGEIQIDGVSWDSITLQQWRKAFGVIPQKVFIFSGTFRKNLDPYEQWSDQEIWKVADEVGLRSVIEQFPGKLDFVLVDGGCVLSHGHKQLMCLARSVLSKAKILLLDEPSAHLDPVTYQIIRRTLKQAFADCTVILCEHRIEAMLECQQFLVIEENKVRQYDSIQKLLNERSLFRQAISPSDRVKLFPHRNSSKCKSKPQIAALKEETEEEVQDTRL
Kind of assay: ΔF508-CFTR-HRP trafficking assay (cell surface expression of ΔF508-CFTR). It is filed as cell-based. Particulars: CFSMEo- cells transiently transfected with ΔF508-CFTR-HRP; test agent 3 μM, 48 h; HRP chemiluminescence. The source says: Test agents were screened for their effect on cell surface expression of ΔF508-CFTR using the ΔF508-CFTR-HRP trafficking assay. For this assay, a ΔF508-CFTR expression construct was designed with an in-frame insertion of a horseradish peroxidase (HRP) tag into the 4th extracellular loop of CFTR. The HRP tag would be presented extracellularly, in cells transiently transfected with the ΔF508-CFTR-HRP construct, following correction of the ΔF508-CFTR trafficking defect. The quantity of ΔF508-CFTR-HRP expressed on the plasma membrane could therefore be determined by measuring an HRP-dependent signal after the application of a cell-impermeable HRP substrate.
In brief, CF submucosal gland epithelial cells (CFSMEo-), derived from the airways of a CF patient (ΔF508/Q2X) and provided by Dr. Dieter Gruenert, University of California-San Francisco, were cultured at 37° C. with 5% CO2 in minimum essential medium (MEM) with Earle's salt and nonessential amino acids, supplemented with 10% (volume per volume [v/v]) fetal bovine serum, 2 mM L-glutamine and 1× (v/v) penicillin/streptomycin and grown in tissue culture-treated flasks coated with an extracellular matrix (ECM) cocktail consisting of 10 μg/mL human fibronectin, 30 μg/mL bovine collagen type I, and 100 μg/mL bovine serum albumin in LHC basal medium. These CFSMEo^− cells were transiently transfected with 4 μg of the ΔF508-CFTR-HRP expression construct using the Lonza 4D-Nucleofector Core unit (Lonza, Catalogue No. AAF-1002B) with the X unit (Lonza, Catalogue No. AAF-1002X) and SF Cell Line 4D-Nucleofector X Kit L (Lonza, Catalogue No. V4XC-2024) according to the manufacturer's instructions and plated at 1.2×10^4 cells/well onto collagen-coated, 96-well plates (Corning Inc.). Twenty-four h post-transfection, cells were treated with test agents, solubilized in DMSO at a concentration of 3 μM in replicates of 3, and allowed to incubate for 48 h. To detect HRP expression, cell culture media was removed, cells were washed with PBS and 100 μL of Luminata Forte HRP chemiluminescent substrate (EMD Millipore, Burlington, MA) was added to each well. Following a 5-minute incubation, chemiluminescence was measured in relative luminescent units (RLUs) using an EnVision plate reader (Perkin Elmer, Waltham, MA).
The ΔF508-CFTR-HRP trafficking data was normalized to the vehicle treated control (0.3% DMSO), followed by calculation of the mean, standard deviation, and standard error. If the test agent increased cell surface expression of ΔF508-CFTR-HRP relative to the vehicle-treated control, then that test agent was considered a ΔF508-CFTR corrector. Based on the description above, the biological activity of the examples in this disclosure is collected in Table 2.
With `C[C@H](Oc1cc(-n2nc(C(F)(F)F)c3c2[C@H](OC24CC(CC(=O)O)(C2)C4)CCC3)ccc1F)c1ccc2c(c1)OC(F)(F)O2` (single isomer, unassigned) [78 (P2)], the “RLUs: ΔF508-CFTR-HRP trafficking data normalized to the vehicle treated control (0.3% DMSO)” value is “C (RLU 0.0 μM-3.5 μM)”.
In the case of `C[C@@H](Oc1cccc(-n2nc(C(F)(F)F)c3c2C(O[C@H]2CC[C@H](C(=O)O)CC2)CCC3)c1)c1ccc2c(c1)OC(F)(F)O2` (stereo partly shown) [Example 38], the “RLUs: ΔF508-CFTR-HRP trafficking data normalized to the vehicle treated control (0.3% DMSO)” value is on record as “A (RLU 5.0 μM-10 μM)”.
On to `C[C@H](Oc1cc(-n2nc(C(F)(F)F)c3c2[C@@H](OC24CC(CC(=O)O)(C2)C4)CCC3)ccc1F)c1ccc2c(c1)OC(F)(F)O2` (single isomer, unassigned) [78 (P1)], for which the “RLUs: ΔF508-CFTR-HRP trafficking data normalized to the vehicle treated control (0.3% DMSO)” value is on record as “C (RLU 0.0 μM-3.5 μM)”.
The value for `CC(c1ccc2c(c1)OC(F)(F)O2)C1(c2cc(-n3nc(C(F)(F)F)c4c3C(Oc3ccc(C(=O)O)cc3)CCC4)ccn2)COC1` (stereo not shown) [Example 119, 4-[[1-[2-[3-[1-(2,2-difluoro-1,3-benzodioxol-5-yl)ethyl]oxetan-3-yl]-4-pyridyl]-3-(trifluoromethyl)-4,5,6,7-tetrahydroindazol-7-yl]oxy]benzoic] was “C (RLU 0.0 μM-3.5 μM)”; that for `C[C@H](Oc1cc(-n2nc(C(F)(F)F)c3c2[C@@H](Oc2ccc(C(=O)O)cc2)CN(C)C3)ccn1)c1ccc2c(c1)OC(F)(F)O2` (single isomer, unassigned) [115 (P1)] was “B (RLU 3.5 μM-5.0 μM)”; that for `Cc1cc(OC2CCCc3c(C(F)(F)F)nn(-c4cccc(O[C@@H](C)c5cc6c(cc5F)OC(F)(F)O6)c4)c32)ccc1C(=O)O` (stereo partly shown) [Example 35] was “B (RLU 3.5 μM-5.0 μM)”.
The value for `C[C@H](Oc1cncc(-n2nc(C(F)(F)F)c3c2[C@@H](OC24CCC(C(=O)O)(CC2)CC4)CCC3)c1)c1ccc2c(c1)OC(F)(F)O2` (single isomer, unassigned) [Example 57] was “B (RLU 3.5 μM-5.0 μM)”.
As for `C[C@H](Oc1cncc(-n2nc(C(F)(F)F)c3c2[C@H](CN2CCC(C(=O)O)CC2)CCC3)c1)c1ccc2c(c1)OC(F)(F)O2` (single isomer, unassigned) [124 (P2)], the entry is “B (RLU 3.5 μM-5.0 μM)”; as for `C[C@H](Nc1cc(-n2nc(C#N)c3c2[C@H](OC24CC(C(=O)O)(C2)C4)CCC3)ncc1F)c1ccc2c(c1)OC(F)(F)O2` (single isomer, unassigned) [107 (P2)], “C (RLU 0.0 μM-3.5 μM)”; as for `C[C@H](Oc1cc(-n2nc(C#N)c3c2[C@@H](Oc2ccc(C(=O)O)cc2)CCC3)ccc1F)c1ccc2c(c1)OC(F)(F)O2` (single isomer, unassigned) [Example 104], “B (RLU 3.5 μM-5.0 μM)”.
With `C[C@H](Oc1cccc(-n2nc(C(F)(F)F)c3c2C(S(=O)(=O)N2CCC(C(=O)O)CC2)CCC3)c1)c1ccc2c(c1)OC(F)(F)O2` (stereo partly shown) [Example 123], the “RLUs: ΔF508-CFTR-HRP trafficking data normalized to the vehicle treated control (0.3% DMSO)” value is given as “B (RLU 3.5 μM-5.0 μM)”.
As for `C[C@H](Nc1cc(-n2nc(C(F)(F)F)c3c2[C@H](NC24CC(C(=O)O)(C2)C4)CCC3)ccc1F)c1ccc2c(c1)OC(F)(F)O2` (single isomer, unassigned) [94 (P2)], the “RLUs: ΔF508-CFTR-HRP trafficking data normalized to the vehicle treated control (0.3% DMSO)” value was “C (RLU 0.0 μM-3.5 μM)”.
With `C[C@H](Oc1cccc(-n2nc(C(F)(F)F)c3c2C(Oc2ccc(C(=O)O)cc2)CCC3)c1)c1cc2c(cc1F)OC(F)(F)O2` (stereo partly drawn) [Example 33, 4-[[1-[3-[(1S)-1-(2,2,6-trifluoro-1,3-benzodioxol-5-yl)ethoxy]phenyl]-3-(trifluoromethyl)-4,5,6,7-tetrahydroindazol-7-yl]oxy]benzoic acid], the “RLUs: ΔF508-CFTR-HRP trafficking data normalized to the vehicle treated control (0.3% DMSO)” value is given as “B (RLU 3.5 μM-5.0 μM)”.
Regarding `C[C@H](Oc1cccc(-n2nc(C(F)(F)F)c3c2C(Sc2ccc(C(=O)O)cc2)CCC3)c1)c1ccc2c(c1)OC(F)(F)O2` (stereo partly drawn) [Example 70, 4-((1-(3-((S)-1-(2,2-difluorobenzo[d][1,3]dioxol-5-yl)ethoxy)phenyl)-3-(trifluoromethyl)-4,5,6,7-tetrahydro-1H-indazol-7-yl)thio)benzoic acid], the “RLUs: ΔF508-CFTR-HRP trafficking data normalized to the vehicle treated control (0.3% DMSO)” value is listed as “A (RLU 5.0 μM-10 μM)”.
As to `C[C@H](Oc1cccc(-n2nc(C(F)(F)F)c3c2N(CC24CC(C(=O)O)(C2)C4)CCC3)c1)c1ccc2c(c1)OC(F)(F)O2` [Example 11, 3-[[1-[3-[(1S)-1-(2,2-difluoro-1,3-benzodioxol-5-yl)ethoxy]phenyl]-3-(trifluoromethyl)-5,6-dihydro-4H-pyrazolo[3,4-b]pyridine-7-yl]methyl]bicyclo[1.1.1]pentane-1-carboxylic acid], the “RLUs: ΔF508-CFTR-HRP trafficking data normalized to the vehicle treated control (0.3% DMSO)” value is reported as “A (RLU 5.0 μM-10 μM)”.
With `C[C@H](Oc1cncc(-n2nc(C(F)(F)F)c3c2[C@H](O[C@H]2CC[C@H](C(=O)O)CC2)CCC3)c1)c1ccc2c(c1)OC(F)(F)O2` (single isomer, unassigned) [Example 67], the “RLUs: ΔF508-CFTR-HRP trafficking data normalized to the vehicle treated control (0.3% DMSO)” value is on record as “A (RLU 5.0 μM-10 μM)”.
Take `C[C@H](Oc1cc(-n2nc(C(F)(F)F)c3c2[C@@H](OC24CCC(C(=O)O)(CC2)CC4)CCC3)ccn1)c1ccc2c(c1)OC(F)(F)O2` (single isomer, unassigned) [Example 64]: the “RLUs: ΔF508-CFTR-HRP trafficking data normalized to the vehicle treated control (0.3% DMSO)” value was “A (RLU 5.0 μM-10 μM)”.
For `C[C@H](Oc1cccc(-n2nc(C(F)(F)F)c3c2[C@H](Oc2ccc(C(=O)O)cc2)CCC3)c1)c1ccc2c(c1)OC(F)(F)O2` (single isomer, unassigned) [Example 26], the “RLUs: ΔF508-CFTR-HRP trafficking data normalized to the vehicle treated control (0.3% DMSO)” value is reported as “A (RLU 5.0 μM-10 μM)”.
For the compound `C[C@H](Oc1cc(-n2nc(C(F)(F)F)c3c2C(O[C@H]2CC[C@H](C(=O)O)CC2)CCC3)cc(F)n1)c1ccc2c(c1)OC(F)(F)O2` (stereo in doubt) [80 (P2), 4-[[(7R)-1-[2-[(1S)-1-(2,2-difluoro-1,3-benzodioxol-5-yl)ethoxy]-6-fluoro-4-pyridyl]-3-(trifluoromethyl)-4,5,6,7-tetrahydroindazol-7-yl]oxy]cyclohexanecarboxylic acid], the “RLUs: ΔF508-CFTR-HRP trafficking data normalized to the vehicle treated control (0.3% DMSO)” value is “B (RLU 3.5 μM-5.0 μM)”.
For the compound `C[C@H](Oc1cc(-n2nc(C(F)(F)F)c3c2[C@H](NC(=O)C24CC(C(=O)O)(C2)C4)CCC3)ccn1)c1ccc2c(c1)OC(F)(F)O2` (single isomer, unassigned) [Example 113], the “RLUs: ΔF508-CFTR-HRP trafficking data normalized to the vehicle treated control (0.3% DMSO)” value is given as “C (RLU 0.0 μM-3.5 μM)”.
As for `CC(C)n1nc(-c2ccnc(N[C@@H](C)c3ccc4c(c3)OC(F)(F)O4)c2)c2c1CCC[C@@H]2Oc1ccc(C(=O)O)cc1` (single isomer, unassigned) [Example 128], the entry is “B (RLU 3.5 μM-5.0 μM)”; as for `C[C@H](Oc1cc(-n2nc(C(F)(F)F)c3c2[C@@H](Nc2ccc(C(=O)O)cc2)CCC3)ccn1)c1cc2c(cc1F)OC(F)(F)O2` (single isomer, unassigned) [Example 110], “B (RLU 3.5 μM-5.0 μM)”.
With `C[C@H](Oc1cc(-n2nc(C#N)c3c2[C@H](OC24CC(C(=O)O)(C2)C4)CCC3)ccc1F)c1ccc2c(c1)OC(F)(F)O2` (single isomer, unassigned) [105 (P2)], the “RLUs: ΔF508-CFTR-HRP trafficking data normalized to the vehicle treated control (0.3% DMSO)” value is listed as “B (RLU 3.5 μM-5.0 μM)”.
Regarding `C[C@H](Nc1cc(-n2nc(C(F)(F)F)c3c2[C@@H](Nc2ccc(C(=O)O)cc2)CCC3)ccn1)c1ccc2c(c1)OC(F)(F)O2` (single isomer, unassigned) [Example 93], the “RLUs: ΔF508-CFTR-HRP trafficking data normalized to the vehicle treated control (0.3% DMSO)” value is “A (RLU 5.0 μM-10 μM)”.
Regarding `CC(Sc1cccc(-n2nc(C(F)(F)F)c3c2C(Oc2ccc(C(=O)O)cc2)CCC3)c1)c1ccc2c(c1)OC(F)(F)O2` (stereo not shown) [Example 116, 4-[[1-[3-[1-(2,2-difluoro-1,3-benzodioxol-5-yl)ethylsulfanyl]phenyl]-3-(trifluoromethyl)-4,5,6,7-tetrahydroindazol-7-yl]oxy]benzoic acid], the “RLUs: ΔF508-CFTR-HRP trafficking data normalized to the vehicle treated control (0.3% DMSO)” value is reported as “B (RLU 3.5 μM-5.0 μM)”.
